Source: the supplement of paper PMC10307832

Tests used:
Experiment in all cases: relative viability (nuclei count vs DMSO), 5 days (fraction); higher = more cells survive
[1] = compound: C[C@]12O[C@H](C[C@]1(O)CO)n1c3ccccc3c3c4c(c5c6ccccc6n2c5c31)CNC4=O [Lestaurtinib] + Nc1ncn([C@H]2C[C@H](O)[C@@H](CO)O2)c(=O)n1 [Decitabine] (partner 2 µM)
Method in brief: (§1)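 Each reported value is a median over duplicate plates. It expresses relative viability: treated-well nuclei count divided by vehicle-well nuclei count. Lung cancer cell lines in 1536-well plates were dosed by pin tool a day after seeding, alone with one drug or with a fixed anchor-drug dose plus five library-drug doses (not always all listed) in √10 steps, and nuclei were counted after 5 days.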

[2] = compound: C1/C(=C\C2=CC=CS2)/C(=O)/C(=C/C3=CC=CS3)/C1 + CCNC(=O)c1noc(-c2cc(C(C)C)c(O)cc2O)c1-c1ccc(CN2CCOCC2)cc1 [Luminespib] (partner 0.01 µM)
Method in brief: as §1

[3] = compound: C1=CC(=CC=C1C2=CC(=C(S2)NC(=O)N)C(=O)N)F [TPCA-1] + CS(=O)(=O)CCNCc1ccc(-c2ccc3ncnc(Nc4ccc(OCc5cccc(F)c5)c(Cl)c4)c3c2)o1 [Lapatinib] (partner 2 µM)
Method in brief: as §1

[4] = compound: C1=CC(=CC=C1C2=CC(=C(S2)NC(=O)N)C(=O)N)F [TPCA-1] + Nc1nc2[nH]cc(CCc3ccc(C(=O)N[C@@H](CCC(=O)O)C(=O)O)cc3)c2c(=O)[nH]1 [Pemetrexed] (partner 0.2 µM)
Method in brief: as §1

UMC-11
relative viability ([1]; first compound 0.005 µM): 0.63
relative viability ([1]; first compound 0.01581 µM): 1.49
relative viability ([1]; first compound 0.05 µM): 0.544
relative viability ([1]; first compound 0.1581 µM): 0.241
relative viability ([1]; first compound 0.5 µM): 0.218
relative viability ([2]; first compound 0.2 µM): 1.02
relative viability ([2]; first compound 0.6325 µM): 0.978
relative viability ([2]; first compound 20 µM): 1.05
relative viability ([3]; first compound 0.04 µM): 1.18
relative viability ([3]; first compound 0.1265 µM): 0.754
relative viability ([3]; first compound 0.4 µM): 0.69
relative viability ([3]; first compound 1.265 µM): 0.956
relative viability ([3]; first compound 4 µM): 0.178
relative viability ([4]; first compound 0.04 µM): 0.809
relative viability ([4]; first compound 0.1265 µM): 0.763
relative viability ([4]; first compound 0.4 µM): 0.843
relative viability ([4]; first compound 1.265 µM): 0.776
relative viability ([4]; first compound 4 µM): 0.799
